The source of these data is patent US8921383B2, “Thiazolopyrimidine compounds” (Hoffmann-La Roche Inc., priority 2011, dated 2014).

For the experiment, the target named is T1, purified recombinant human SYK360-635 (Homo sapiens, UniProt P43405).
T1 construct: truncated construct of Spleen Tyrosine Kinase aa 360-635; GST; made in house
The experiment can be described thus: SYK kinase assay: 33P γATP incorporation into biotinylated peptide substrate, IC50 determination. It is filed as biochemical. To be noted: SYK 0.5 nM, ATP 20 μM, DYE peptide 5 μM, 30° C. 15 min; read-out: IC50 h-syk-gst-sf9-c (inactive-dephosphorylated). The protocol: Determination of IC50 of Spleen Tyrosine Kinase (SYK) Inhibition:
SYK kinase assay is a standard kinase assay adapted to a 96 well plate format. This assay is performed in 96-well format for IC50 determination with […] which represented 10 half log dilutions and a 40 μL reaction volume. The assay measures the incorporation of radiolabeled ^33P γATP into an N-terminally biotinylated peptide substrate, derived from naturally occurring phosphoacceptor consensus sequence (Biotin-11aa DY*E). Phosphorylated products were detected upon termination of reactions with EDTA and the addition of Streptavidin coated beads.
Assay plates: 96-well MultiScreen 0.65 um filter plates (Millipore Cat. No.: MADVNOB10)
BSA: Bovine Serum Albumin Fraction V, fatty acid free (Roche Diagnostics GmbH, Cat. No. 9100221) diluted to a final concentration of 0.1%
Assay Dilution Buffer (ADB): 50 mM HEPES, 0.1 mM EGTA, 0.1 mM Na Vanadate, 0.1 mM β-glycerophosphate, 10 mM MgCl2, 1 mM DTT, 0.1% BSA, pH 7.5
Bead wash buffer: 10 g/L PBS (Phosphate buffered saline) with 2M NaCl+1% phosphoric acid.
DMSO and the mixture was incubated for 10 min at RT.
The kinase reaction was initiated by the addition of 10 μL 4× substrate cocktail containing the DYE peptide substrate [0 or 5 μM], ATP [20 μM] and ^33PγATP [2 μCi/r×n]. After incubation at 30° C. for 15 min, the reaction was terminated by the transfer of 25 μL of the reaction sample to a 96 well 0.65 μm Millipore MADVNOB membrane/plate containing 200 μL 5 mM EDTA and 20% Streptavidine coated beads in PBS.
After the last wash membrane/plates were transferred to an adaptor plate, heat dried for 15 min at 60° C., and 50 μL scintillation cocktail was added to each well and 4 h later the amount of radioactivity was counted in a top counter.
The IC50 is the concentration at which inhibition is half-maximal. For the compound `COc1ccc(Nc2nc(N3CCC(NC(=O)c4ccc5[nH]ncc5c4)C3)nc3scnc23)cc1OC` (stereo not shown) [Compound I-35, N-(1-(7-(3,4-Dimethoxyphenylamino)thiazolo[5,4-d]pyrimidin-5-yl)pyrrolidin-3-yl)-1H-indazole-5-carboxamide], the IC50 is 418 nM.
As for `COc1ccc(Nc2nc(N3CCC(NC(=O)c4ccc(C(N)=O)nc4)C3)nc3scnc23)cc1OC` (stereo not shown) [Compound I-37, N5-(1-(7-(3,4-Dimethoxyphenylamino)thiazolo[5,4-d]pyrimidin-5-yl)pyrrolidin-3-yl)pyridine-2,5-dicarboxamide], the figure is 912 nM; as for `COC(=O)c1ccc(C(=O)NC2CCN(c3nc(Nc4ccc(OC)c(OC)c4)c4ncsc4n3)C2)cn1` (stereo not shown) [Compound I-38, Methyl 5-(1-(7-(3,4-dimethoxyphenylamino)thiazolo[5,4-d]pyrimidin-5-yl)pyrrolidin-3-ylcarbamoyl)picolinate], 1950 nM; as for `COc1ccc(Nc2nc(N3CCC(NC(=O)c4ccc(C(=O)O)nc4)C3)nc3scnc23)cc1OC` (stereo not shown) [Compound I-39, 5-(1-(7-(3,4-Dimethoxyphenylamino)thiazolo[5,4-d]pyrimidin-5-yl)pyrrolidin-3-ylcarbamoyl)picolinic acid], 129 nM.
For the compound `COc1ccc(Nc2nc(N3CCCC(C(=O)Nc4ccc5c(c4)CC(=O)N5)C3)nc3scnc23)cc1OC` (stereo not shown) [Compound I-40, 1-(7-(3,4-Dimethoxyphenylamino)thiazolo[5,4-d]pyrimidin-5-yl)-N-(2-oxoindolin-5-yl)piperidine-3-carboxamide], the IC50 is 5410 nM.
Regarding `COc1ccc(Nc2nc(N3CCCC(C(=O)Nc4ccc5[nH]ncc5c4)C3)nc3scnc23)cc1OC` (stereo not shown) [Compound I-41, 1-(7-(3,4-Dimethoxyphenylamino)thiazolo[5,4-d]pyrimidin-5-yl)-N-(1H-indazol-5-yl)piperidine-3-carboxamide], the IC50 was 1690 nM.
For `COc1ccc(Nc2nc(N3CCCC(C(=O)Nc4ccc(C(=O)O)c(OC)c4)C3)nc3scnc23)cc1OC` (stereo not shown) [Compound I-43, 4-({1-[7-(3,4-Dimethoxy-phenylamino)-thiazolo[5,4-d]pyrimidin-5-yl]-piperidine-3-carbonyl}-amino)-2-methoxy-benzoic acid] the value was 164 nM; for `COc1ccc(Nc2nc(N3CCCC(C(=O)Nc4ccc(-c5noc(=O)[nH]5)cc4)C3)nc3scnc23)cc1OC` (stereo not shown) [Compound I-44, 1-(7-(3,4-Dimethoxyphenylamino)thiazolo[5,4-d]pyrimidin-5-yl)-N-(4-(5-oxo-4,5-dihydro-1,2,4-oxadiazol-3-yl)phenyl)piperidine-3-carboxamide], 136 nM; for `COc1ccc(Nc2nc(N3CCCC(C(=O)Nc4ccc5cn[nH]c5c4)C3)nc3scnc23)cc1OC` (stereo not shown) [Compound I-45, 1-(7-(3,4-Dimethoxyphenylamino)thiazolo[5,4-d]pyrimidin-5-yl)-N-(1H-indazol-6-yl)piperidine-3-carboxamide], 922 nM.
With `COc1ccc(Nc2nc(N3CCCC(C(=O)Nc4ccc5c(c4)CNC5=O)C3)nc3scnc23)cc1OC` (stereo not shown) [Compound I-46, 1-(7-(3,4-Dimethoxyphenylamino)thiazolo[5,4-d]pyrimidin-5-yl)-N-(1-oxoisoindolin-5-yl)piperidine-3-carboxamide], the IC50 was found to be 1030 nM.
For `COc1ccc(Nc2nc(N3CCCC(C(=O)Nc4ccc(C(=O)O)c(O)c4)C3)nc3scnc23)cc1OC` (stereo not shown) [Compound I-47, 4-(1-(7-(3,4-Dimethoxyphenylamino)thiazolo[5,4-d]pyrimidin-5-yl)piperidine-3-carboxamido)-2-hydroxybenzoic acid] the value was 71 nM.
Regarding `COc1ccc(Nc2nc(N3CCCC(C(=O)NC4CNC(=O)C4)C3)nc3scnc23)cc1OC` (stereo not shown) [Compound I-48, 1-(7-(3,4-Dimethoxyphenylamino)thiazolo[5,4-d]pyrimidin-5-yl)-N-(5-oxopyrrolidin-3-yl)piperidine-3-carboxamide], the IC50 was 4210 nM.
With `COc1ccc(Nc2nc(N3CCCC(C(=O)Nc4cnccn4)C3)nc3scnc23)cc1OC` (stereo not shown) [Compound I-49, 1-(7-(3,4-Dimethoxyphenylamino)thiazolo[5,4-d]pyrimidin-5-yl)-N-(pyrazin-2-yl)piperidine-3-carboxamide], the half-maximal inhibitory concentration (IC50) came to 1520 nM.
As for `COc1ccc(Nc2nc(N3CCCC(C(=O)Nc4ccc5c(c4)C(=O)NC5=O)C3)nc3scnc23)cc1OC` (stereo not shown) [Compound I-50, 1-(7-(3,4-Dimethoxyphenylamino)thiazolo[5,4-d]pyrimidin-5-yl)-N-(1,3-dioxoisoindolin-5-yl)piperidine-3-carboxamide], the figure is 1920 nM.
Take `COc1ccc(Nc2nc(N3CCCC(C(=O)Nc4ccc(-c5nnc(S)o5)cc4)C3)nc3scnc23)cc1OC` (stereo not shown) [Compound I-51, 1-(7-(3,4-Dimethoxyphenylamino)thiazolo[5,4-d]pyrimidin-5-yl)-N-(4-(5-mercapto-1,3,4-oxadiazol-2-yl)phenyl)piperidine-3-carboxamide]: the IC50 came to 156 nM.
For `COc1ccc(Nc2nc(N3CCCC(C(=O)Nc4ccc(-c5nnc(S)n5C)cc4)C3)nc3scnc23)cc1OC` (stereo not shown) [Compound I-52, 1-(7-(3,4-Dimethoxyphenylamino)thiazolo[5,4-d]pyrimidin-5-yl)-N-(4-(5-mercapto-4-methyl-4H-1,2,4-triazol-3-yl)phenyl)piperidine-3-carboxamide] the value was 441 nM.
For `O=C(O)c1cccc(-c2nc(Nc3cccc(N4CC5(COC5)C4)c3)c3ncsc3n2)c1` [Compound I-53, 3-{7-[3-(2-Oxa-6-aza-spiro[3.3]hept-6-yl)-phenylamino]-thiazolo[5,4-d]pyrimidin-5-yl}-benzoic acid] the value was 3870 nM.
As for `COc1ccc(Nc2nc(N3CCC(NC(=O)c4ccc(C(=O)O)cc4)C3)nc3scnc23)nc1OC` (stereo not shown) [Compound I-55, 4-(1-(7-(5,6-Dimethoxypyridin-2-ylamino)thiazolo[5,4-d]pyrimidin-5-yl)pyrrolidin-3-ylcarbamoyl)benzoic acid], the IC50 was 6150 nM.
As for `COC(=O)c1cccc(-c2nc(Nc3cccc(C(F)(F)F)c3)c3ncsc3n2)c1` [Compound I-56, Methyl 3-(7-(3-(trifluoromethyl)phenylamino)thiazolo[5,4-d]pyrimidin-5-yl)benzoate], the IC50 is 3180 nM.
As for `O=C(O)c1cccc(-c2nc(Nc3cccc(C(F)(F)F)c3)c3ncsc3n2)c1` [Compound I-57, 3-[7-(3-Trifluoromethyl-phenylamino)-thiazolo[5,4-d]pyrimidin-5-yl]-benzoic acid], the figure is 4250 nM.
For `COc1cc(Nc2nc(-c3cccc(C(N)=O)c3)nc3scnc23)cc(OC)c1OC` [Compound I-58, 3-[7-(3,4,5-Trimethoxy-phenylamino)-thiazolo[5,4-d]pyrimidin-5-yl]-benzamide] the value was 2250 nM.
Turning to `C[C@H]1CCCN1c1cccc(Nc2nc(N3CCCC(O)C3)nc3scnc23)c1` (stereo partly drawn) [Compound I-59, 1-(7-(3-((S)-2-Methylpyrrolidin-1-yl)phenylamino)thiazolo[5,4-d]pyrimidin-5-yl)piperidin-3-ol], the IC50 was found to be 757 nM.
Turning to `COc1cc(Nc2nc(-c3ccc(C(N)=O)cc3)nc3scnc23)cc(N2CCC[C@@H]2C)c1` [Compound I-60, 4-{7-[3-Methoxy-5-((S)-2-methyl-pyrrolidin-1-yl)-phenylamino]-thiazolo[5,4-d]pyrimidin-5-yl}-benzamide], the half-maximal inhibitory concentration (IC50) was determined as 1110 nM.
As for `COc1ccc(-c2nc(Nc3cccc(N4CCC[C@@H]4C)c3)c3ncsc3n2)cn1` [Compound I-61, (S)-5-(6-Methoxypyridin-3-yl)-N-(3-(2-methylpyrrolidin-1-yl)phenyl)thiazolo[5,4-d]pyrimidin-7-amine], the figure is 1040 nM.
In the case of `C[C@H]1CCCN1c1cccc(Nc2nc(-c3ccc(C(N)=O)cc3)nc3scnc23)c1` [Compound I-62, 4-{7-[3-((S)-2-Methyl-pyrrolidin-1-yl)-phenylamino]-thiazolo[5,4-d]pyrimidin-5-yl}-benzamide], the IC50 is 337 nM.
For `COc1ccc(Nc2nc(-c3cccc(C(=O)Nc4ccc(C5SC(=O)NC5=O)cc4)c3)nc3scnc23)cc1OC` (stereo not shown) [Compound I-63, 3-[7-(3,4-Dimethoxy-phenylamino)-thiazolo[5,4-d]pyrimidin-5-yl]-N-[4-(2,4-dioxo-thiazolidin-5-yl)-phenyl]-benzamide], the half-inhibitory concentration (IC50) came to 53 nM.
Take `COc1ccc(Nc2nc(-c3ccc(C(N)=O)cc3)nc3scnc23)cc1OC` [Compound I-64, 4-[7-(3,4-Dimethoxy-phenylamino)-thiazolo[5,4-d]pyrimidin-5-yl]-benzamide]: the half-inhibitory concentration (IC50) came to 113 nM.
As for `C[C@H]1CCCN1c1cccc(Nc2nc(-c3ccc(C(=O)NCCN(C)C)cc3)nc3scnc23)c1` [Compound I-65, (S)-N-(2-(Dimethylamino)ethyl)-4-(7-(3-(2-methylpyrrolidin-1-yl)phenylamino)thiazolo[5,4-d]pyrimidin-5-yl)benzamide], the figure is 351 nM.
